From PMC9054821, “Molecular basis of antibiotic self-resistance in a bee larvae pathogen” (Nature Communications, 2022)

Target: T1, PamZ (Paenibacillus larvae, UniProt V9W634)
T1 construct: gene ERIC2_c18030; full length, 275 residues; pET28a(+) N-terminal His6-tag with TEV site, tag cut; E. coli BL21-Gold(DE3); monomer
Test: X-ray crystal structure
Type: binding
Conditions: 1.34 Å; co-substrate bound to the C-terminal GNAT domain only; crystals at pH 4.6, 293 K

T1 sequence (V9W634 entry or part of it): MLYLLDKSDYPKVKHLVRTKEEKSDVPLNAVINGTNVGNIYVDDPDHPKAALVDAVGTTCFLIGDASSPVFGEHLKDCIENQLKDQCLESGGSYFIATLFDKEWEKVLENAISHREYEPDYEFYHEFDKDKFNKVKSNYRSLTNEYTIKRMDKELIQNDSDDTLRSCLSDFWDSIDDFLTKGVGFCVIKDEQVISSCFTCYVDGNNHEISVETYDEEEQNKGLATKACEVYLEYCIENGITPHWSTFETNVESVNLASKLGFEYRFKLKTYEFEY

CC(=O)SCCNC(=O)CCNC(=O)[C@H](O)C(C)(C)COP(=O)(O)OP(=O)(O)OC[C@H]1O[C@@H](n2cnc3c(N)ncnc32)[C@H](O)[C@@H]1OP(=O)(O)O [acetyl-CoA]
X-ray crystal structure: We solved the crystal structure of PamZ in complex with acetyl-CoA
